Data set [1] can be described thus: Pharmacokinetic parameters and characteristics of mirdametinib (Table A). The data set is classed as in vivo, human. Particulars: for Tmax [median (range)]: post dose. On the procedure:
(§1) Study treatment was administered orally at a twice daily (BID) dose specified in the table below. Dosing was on a 28-day Cycle (4-week course) with a 3 week on/1 week off schedule. The treatment period will last for up to 24 Cycles followed by a 30-day Safety Follow-Up period.

For data set [2], the system named is NF1-associated plexiform neurofibromas (PN). The data set is described as follows: Phase 2b trial in adult and pediatric patients with NF1-associated inoperable plexiform neurofibromas; response by BICR volumetric MRI per REiNS criteria. Particulars: for DoR ≥12 months: Kaplan-Meier based approach, data cut-off September 2023. The data set is classed as in vivo, human. On the procedure:
Participants were screened (assessed for eligibility as described below). […] The median age was 34.5 years (range 18 to 69 years); 85% were white and 64% were female. […] The most commonly reported morbidities were pain (90%) and disfigurement or major deformity (52%).
The median age was 10 years (range 2 to 17 years); 66% were white and 54% were female. […] The most commonly reported morbidities were pain (70%) and disfigurement or major deformity (50%).
as §1
A partial response was defined as PN decrease≥20% compared to baseline using centrally read MRI volumetric analysis.
The major efficacy outcome measure was confirmed objective response rate (ORR), defined as the percentage of patients with complete response (disappearance of the target PN) or confirmed partial response (≥20% reduction in PN volume confirmed at a subsequent tumor assessment within 2-6 months during the 24-cycle treatment phase). Responses were assessed by blinded independent central review (BICR) using volumetric magnetic resonance imaging (MRI) analysis per Response Evaluation in Neurofibromatosis and Schwannomatosis (REINS) criteria. A secondary efficacy objective was to determine the duration of response for patients who achieved a confirmed objective response.

The mark [3] stands for this setting: Pediatric patients (2 to <18 years).

As to `O=C(NOC[C@H](O)CO)c1ccc(F)c(F)c1Nc1ccc(I)cc1F` (single isomer, unassigned) [mirdametinib], the “Steady-state exposure AUClast [geometric mean (geometric % CV)]” value in data set [1] (Adult patients (≥18 years)) was “Adult patients (≥18 years): 431 (43%) ng · h/mL”; in data set [1] (setting [3]) it was “Pediatric patients (2 to <18 years): 459 (46%) ng · h/mL”. In addition, the results for the “Steady-state exposure Cmax [geometric mean (geometric % CV)]” value in data set [1] (Adult patients (≥18 years)) and in data set [1] (setting [3]) were “Adult patients (≥18 years): 188 (52%) ng/mL” and “Pediatric patients (2 to <18 years): 191 (62%) ng/mL”, respectively. Moreover, the “Tmax [median (range)]” value is reported as “Capsule: 1.08 (0.00-4.17) hours post dose” in data set [1] (Capsule) and “Tablet: 0.83 (0.42-3.02) hours post dose” in data set [1] (Tablet). For the same compound, the “DoR ≥12 months” value in data set [2] (Adult responders) is 18 (75%) n (%); in data set [2] (Pediatric responders), 22 (76%) n (%). Besides, the “Median time to onset of response” value in data set [2] (adult cohort, range 4.0 to 19.0 months) is 7.8 months; in data set [2] (pediatric cohort, range 4.1 to 18.8 months) it was 7.9 months.
